This assay addresses T1, CIC-1 (Rattus norvegicus, UniProt P35524).
T1 construct: from tissue; host or cells: soleus or diaphragm muscle of healthy and EAMG Lewis rats
T1 sequence (P35524 1-994): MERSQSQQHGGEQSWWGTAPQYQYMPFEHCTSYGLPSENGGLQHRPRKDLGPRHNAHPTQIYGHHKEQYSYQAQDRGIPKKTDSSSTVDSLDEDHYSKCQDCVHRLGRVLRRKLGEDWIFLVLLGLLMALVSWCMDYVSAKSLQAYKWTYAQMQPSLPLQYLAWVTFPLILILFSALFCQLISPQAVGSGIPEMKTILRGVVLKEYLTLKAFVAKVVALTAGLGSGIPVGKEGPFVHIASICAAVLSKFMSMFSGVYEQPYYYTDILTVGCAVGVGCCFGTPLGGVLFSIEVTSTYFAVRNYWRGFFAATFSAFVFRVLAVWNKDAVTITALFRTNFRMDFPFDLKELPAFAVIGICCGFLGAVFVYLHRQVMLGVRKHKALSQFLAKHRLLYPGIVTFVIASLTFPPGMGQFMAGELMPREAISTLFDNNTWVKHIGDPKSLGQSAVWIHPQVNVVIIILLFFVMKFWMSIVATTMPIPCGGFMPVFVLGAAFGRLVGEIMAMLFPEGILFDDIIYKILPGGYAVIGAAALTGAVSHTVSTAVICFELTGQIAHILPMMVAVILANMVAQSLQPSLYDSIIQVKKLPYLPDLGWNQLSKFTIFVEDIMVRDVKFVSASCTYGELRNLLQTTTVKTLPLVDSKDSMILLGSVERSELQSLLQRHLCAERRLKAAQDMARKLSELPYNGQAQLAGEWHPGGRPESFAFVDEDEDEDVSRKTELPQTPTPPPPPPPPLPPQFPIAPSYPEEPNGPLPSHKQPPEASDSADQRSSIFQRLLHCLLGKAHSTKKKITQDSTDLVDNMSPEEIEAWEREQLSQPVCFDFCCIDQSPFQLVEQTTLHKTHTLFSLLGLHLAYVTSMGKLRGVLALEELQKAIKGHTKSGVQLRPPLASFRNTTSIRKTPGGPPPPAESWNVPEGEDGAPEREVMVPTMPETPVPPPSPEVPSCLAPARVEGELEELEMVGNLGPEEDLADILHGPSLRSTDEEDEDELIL
As to the kind of experiment: Resting membrane conductance (Gm) in muscle fibres of isolated nerve-muscle preparations. The assay is classed as cell-based. The text has this:
To allow for measurements of electrophysiological properties at the cellular level and for measurements of force, it was necessary to isolate nerve-muscle preparations from the rats. To this end, animals were sacrificed, and muscles were dissected out with 1 to 3 cm of intact nerve. The nerve-muscle preparations were then transferred to the organ baths used for the particular experiments (see below) and perfused with Normal Krebs-Ringer (NKR) solution, consisting of (in mM); 122 NaCl, 25 NaHCO3, 2.8 KCl, 1.2 KH2PO4, 1.2 MgSO4 1.27 CaCl2 and 5 D-glucose. This NKR solution was continuously gassed with a mixture of 95% oxygen and 5% CO2, to maintain a pH of approx. 7.4. In some experiments methyl-sulphate was used to replace Cl^− in the solution. All chemicals used were of analytical grade.

The text below walks through data of patent US20260102377A1, “COMPOSITIONS AND METHODS FOR TREATING MYASTHENIA GRAVIS” (priority 2022, published 2026).

In the case of `C[C@H](Oc1ccc(Br)cc1-c1ccon1)C(=O)O` [NMD670, (2S)-2-[4-bromo-2-(1,2-oxazol-3-yl)phenoxy]propanoic acid], the “Membrane conductance (Gm)” value (20 μM NMD670, rat soleus muscle from healthy (n=20) and EAMG (n=12) animals, before vs after addition) is “statistically significantly reduced Gm”. Moreover, the “Membrane conductance (Gm) in bathing solution free of Cl−” value (increasing concentration of NMD670, Cl−-free solution) is recorded as “did not reduced Gm”.
